The test system of assay [1] is HBV. To be noted: Phase 1b proof-of-concept clinical studies; cited from earlier work.
Assay [2] concerns HBV. As to the kind of experiment: HBV inhibition assay in HepAD38 cells (extracellular HBV DNA by direct qPCR). In kind it is cell-based, Hepatitis B virus. Particulars: for Anti HBV Activity (conc μM): 0.05 μM. For orientation: In qPCR the cycle at which signal appears reflects the starting amount.
Setting [3] is: Hepatitis B virus, 96 hours, 8-point dose-response curve, read-out: HBV inh EC50.
Where [4] appears, read: Hepatitis B virus, 96 hours, relative to non-treated reference, read-out: Anti HBV Activity (conc μM).
The mark [5] stands for this setting: 96 hours, relative to non-treated reference.

Where two headings read alike, the source gives them in different places.

By EC50 is commonly meant the midpoint of the concentration-response curve.

With `O=C(Nc1cc(F)c(F)c(F)c1)c1ccc(F)c(S(=O)(=O)N2CCC(O)CC2)c1` [NVR3-778], the “reduction in HBV DNA and serum HBV RNA” value in the assay with HBV [1] is “significant reduction in HBV DNA and serum HBV RNA”.

For `Cc1cc(NC(=O)c2c3c(cn2C)S(=O)(=O)NC2CCN(C(=O)C4(C)CCCO4)CC2CO3)ccc1F` (racemic) [Example E127, Cis-N-(4-fluoro-3-methylphenyl)-2-methyl-8-(2-methyltetrahydrofuran-2-carbonyl)-5,5a,6,7,8,9,9a,10-octahydro-2H-pyrido[4,3-f]pyrrolo[3,4-b][1,4,5]oxathiazocine-1-carboxamide 4,4-dioxide], in the assay with HBV [2] (setting [3]), the EC50 was below 1000 nM.

With `Cn1cc2c(c1C(=O)Nc1cc(F)c(F)c(F)c1)OC[C@H]1CN(C(=O)COP(=O)(O)O)C[C@H]1NS2(=O)=O` (relative stereo) [Example E72, cis-2-(7-methyl-5,5-dioxido-8-((3,4,5-trifluorophenyl)carbamoyl)-3a,4,10,10a-tetrahydro-1H,7H-dipyrrolo[3,4-b:3′,4′-f][1,4,5]oxathiazocin-2(3H)-yl)-2-oxoethyl Dihydrogen Phosphate], the inhibition at 0.1 µM in the assay on HBV [2] (setting [4]) is below 50%.

Consider `Cn1cc2c(c1C(=O)Nc1cc(F)c(F)c(F)c1)OCC1CN(C(=O)c3c[nH]c(=O)cn3)CC1NS2(=O)=O` (stereo not drawn) [Example E56, cis-7-methyl-2-(5-oxo-4,5-dihydropyrazine-2-carbonyl)-N-(3,4,5-trifluorophenyl)-2,3,3a,4,10,10a-hexahydro-1H,7H-dipyrrolo[3,4-b:3′,4′-f][1,4,5]oxathiazocine-8-carboxamide 5,5-dioxide], for which, in the assay on HBV [2] (setting [4]), the inhibition at 0.1 µM was below 50%.

Regarding `CCOC(=O)N1CC2COc3c(cn(C)c3C(=O)Nc3ccc(F)c(C#N)c3)S(=O)(=O)NC2C1` (single isomer, unassigned) [Example E45, Ethyl 8-((3-cyano-4-fluorophenyl)carbamoyl)-7-methyl-3a,4,10,10a-tetrahydro-1H,7H-dipyrrolo[3,4-b:3′,4′-f][1,4,5]oxathiazocine-2(3H)-carboxylate 5,5-dioxide (Chiral 3aS,10aS or 3aR,10aR - Stereochemistry unknown)], the “Anti HBV Activity (conc μM)” value with HBV [2] (setting [5]) was “A (0.05) (HBV inhibition greater than 50% at the concentration indicated in the table)”.

For the compound `Cc1cc(NC(=O)c2c3c(cn2C)S(=O)(=O)N[C@H]2CN(C(=O)OC(C)(C)C)C[C@@H]2CO3)ccc1F` (single isomer, unassigned) [Example E152], the EC50 with HBV [2] (setting [3]) is below 1000 nM.

For `Cn1cc2c(c1C(=O)Nc1cc(F)c(F)c(F)c1)OCC1CN(c3nccc(=O)[nH]3)CC1NS2(=O)=O` (stereo not drawn) [Example E59, cis-7-methyl-2-(6-oxo-1,6-dihydropyrimidin-2-yl)-N-(3,4,5-trifluorophenyl)-2,3,3a,4,10,10a-hexahydro-1H,7H-dipyrrolo[3,4-b:3′,4′-f][1,4,5]oxathiazocine-8-carboxamide 5,5-dioxide], the 50% effective concentration (EC50) in the assay on HBV [2] (setting [3]) was above 1000 nM.

With `CCOC(=O)N1CC2COc3c(cn(C)c3C(=O)Nc3ccc(F)c(C(F)F)c3)S(=O)(=O)NC2C1` (single isomer, unassigned) [Example E43, Ethyl 8-((3-(difluoromethyl)-4-fluorophenyl)carbamoyl)-7-methyl-3a,4,10,10a-tetrahydro-1H,7H-dipyrrolo[3,4-b:3′,4′-f][1,4,5]oxathiazocine-2(3H)-carboxylate 5,5-dioxide (Chiral 3aS,10aS or 3aR,10aR - Stereochemistry unknown)], in the assay on HBV [2] (setting [5]), the “Anti HBV Activity (conc μM)” value was “A (0.05) (HBV inhibition greater than 50% at the concentration indicated in the table)”. Besides, the concentration giving a half-maximal response (EC50) in the assay with HBV [2] (96 hours, 8-point dose-response curve, read-out: HBV inh EC50) was below 1000 nM.

For `Cc1cc(NC(=O)c2c3c(cn2C)S(=O)(=O)NC2CN(C(=O)C45CC(CO4)C5)CC2CO3)ccc1F` (stereo not drawn) [Example E150, Trans-2-(2-oxabicyclo[2.1.1]hexane-1-carbonyl)-N-(4-fluoro-3-methylphenyl)-7-methyl-2,3,3a,4,10,10a-hexahydro-1H,7H-dipyrrolo[3,4-b:3′,4′-f][1,4,5]oxathiazocine-8-carboxamide 5,5-dioxide], in the assay on HBV [2] (setting [3]), the EC50 is below 1000 nM.

As to `Cn1cc2c(c1C(=O)Nc1ccc(F)c(F)c1)OCC1CCN1S2(=O)=O` (stereo not shown) [Example E3, N-(3,4-difluorophenyl)-2-methyl-6,7,7a,8-tetrahydro-2H-azeto[1,2-e]pyrrolo[3,4-b][1,4,5]oxathiazepine-1-carboxamide 4,4-dioxide], the inhibition at 1 µM in the assay on HBV [2] (Hepatitis B virus, 1 μM, 96 hours, relative to non-treated reference, read-out: Anti HBV Activity (conc μM)) is above 50%. For the same compound, the 50% effective concentration (EC50) in the assay on HBV [2] (setting [3]) was below 1000 nM.

With `Cc1cc(NC(=O)c2c3c(cn2C)S(=O)(=O)NC2CCN(C(=O)c4ncoc4C)CC2CO3)ccc1F` (racemic) [Example E129, Cis-N-(4-fluoro-3-methylphenyl)-2-methyl-8-(5-methyloxazole-4-carbonyl)-5,5a,6,7,8,9,9a,10-octahydro-2H-pyrido[4,3-f]pyrrolo[3,4-b][1,4,5]oxathiazocine-1-carboxamide 4,4-dioxide], in the assay on HBV [2] (read-out: HBV inh EC50, 96 hours, 8-point dose-response curve), the concentration giving a half-maximal response (EC50) is below 1000 nM.

In the case of `CCOC(=O)N1CC2COc3c(cn(C)c3C(=O)Nc3ccc(F)c(Cl)c3)S(=O)(=O)NC2C1` (racemic) [Example E15, Cis-Ethyl 8-((3-chloro-4-fluorophenyl)carbamoyl)-7-methyl-3a,4,10,10a-tetrahydro-1H,7H-dipyrrolo[3,4-b:3′,4′-f][1,4,5]oxathiazocine-2(3H)-carboxylate 5,5-dioxide], the inhibition at 0.1 µM with HBV [2] (setting [4]) was above 50%. Also, the EC50 in the assay with HBV [2] (setting [3]) is below 1000 nM.

As for `Cc1cc(NC(=O)c2c3c(cn2C)S(=O)(=O)NC2C(=O)N(Cc4ccccc4)CC2CO3)ccc1F` (stereo not drawn) [Example E155, Cis 2-benzyl-N-(4-fluoro-3-methylphenyl)-7-methyl-3-oxo-2,3,3a,4,10,10a-hexahydro-1H,7H-dipyrrolo[3,4-b:3′,4′-f][1,4,5]oxathiazocine-8-carboxamide 5,5-dioxide], the half-maximal effective concentration (EC50) with HBV [2] (setting [3]) is below 1000 nM.

(Values after patent publication US11504382B2, “Tricyclic inhibitors of Hepatitis B virus” (Antios Therapeutics, Inc., priority 2018, dated 2022).)
